EC50, IC50 and AC50 data for nine molecules are collected here from ChEMBL document CHEMBL1201862, “PubChem BioAssay data set” (2004).

In one experiment the test system is H4. Nature of the experiment: Luminescence Cell-Based Dose Response HTS to Identify Activators of 5'UTR Stem-Loop Driven Prion Protein mRNA Translation in H4 Neuroglioblastoma Cells. [Related pubchem assays: 1829 (Project Summary), 1814 (Primary HTS)]. In kind it is functional. Particulars: Homo sapiens.
Experiment [1] is described as follows: Luminescence Cell-Based Dose Confirmation HTS to Identify Activators of 5'UTR Stem-Loop Driven Alpha-Synuclein mRNA Translation in H4 Neuroglioblastoma Cells. [Related pubchem assays: 1829 (Project Summary), 1814 (Primary HTS)]. In kind it is functional.
A short description of experiment [2]: cells. In kind it is functional, cell-based.
Experiment [3] in a line: Luminescence Cell-Based Dose Response HTS to Identify Activators of Luciferase Translation or Activity in H4 […] Cells. [Related pubchem assays: 1829 (Project Summary), 1814 (Primary HTS)]. Format: functional.
Experiment [4] in a line: cells. In kind it is functional, cell-based. The source holds these as a separate data set.
Experiment [5] deals with T1, DNA repair and recombination protein RAD54-like (Homo sapiens, UniProt Q92698).
T1 sequence (Q92698 whole entry): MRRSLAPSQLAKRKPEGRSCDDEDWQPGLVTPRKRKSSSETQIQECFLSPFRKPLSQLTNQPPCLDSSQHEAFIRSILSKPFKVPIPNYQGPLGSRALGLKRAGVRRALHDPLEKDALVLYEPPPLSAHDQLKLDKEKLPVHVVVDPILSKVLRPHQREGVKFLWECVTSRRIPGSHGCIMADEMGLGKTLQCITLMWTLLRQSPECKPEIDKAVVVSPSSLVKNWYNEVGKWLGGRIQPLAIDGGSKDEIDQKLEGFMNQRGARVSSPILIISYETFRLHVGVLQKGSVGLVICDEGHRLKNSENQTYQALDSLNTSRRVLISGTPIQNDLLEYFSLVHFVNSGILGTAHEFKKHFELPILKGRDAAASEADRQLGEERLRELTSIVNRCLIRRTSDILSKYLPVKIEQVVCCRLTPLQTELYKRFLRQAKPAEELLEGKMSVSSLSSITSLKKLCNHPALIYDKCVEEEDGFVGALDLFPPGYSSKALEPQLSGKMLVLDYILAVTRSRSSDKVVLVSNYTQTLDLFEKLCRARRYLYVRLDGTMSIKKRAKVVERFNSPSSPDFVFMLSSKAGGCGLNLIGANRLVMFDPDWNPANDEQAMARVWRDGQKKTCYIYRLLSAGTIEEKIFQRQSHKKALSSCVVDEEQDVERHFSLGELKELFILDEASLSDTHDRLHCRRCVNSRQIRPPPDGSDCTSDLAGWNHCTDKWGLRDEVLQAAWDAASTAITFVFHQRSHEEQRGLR
Nature of the experiment: inhibitors of human RAD54 branch migration, confirmation, biochemical, fluorescence, cherry-picked samples, dose series (AID 651657). In kind it is functional.

Experiment [6] has as its target T2, DNA repair protein RAD52 homolog (Homo sapiens, UniProt P43351).
T2 sequence (P43351 whole entry): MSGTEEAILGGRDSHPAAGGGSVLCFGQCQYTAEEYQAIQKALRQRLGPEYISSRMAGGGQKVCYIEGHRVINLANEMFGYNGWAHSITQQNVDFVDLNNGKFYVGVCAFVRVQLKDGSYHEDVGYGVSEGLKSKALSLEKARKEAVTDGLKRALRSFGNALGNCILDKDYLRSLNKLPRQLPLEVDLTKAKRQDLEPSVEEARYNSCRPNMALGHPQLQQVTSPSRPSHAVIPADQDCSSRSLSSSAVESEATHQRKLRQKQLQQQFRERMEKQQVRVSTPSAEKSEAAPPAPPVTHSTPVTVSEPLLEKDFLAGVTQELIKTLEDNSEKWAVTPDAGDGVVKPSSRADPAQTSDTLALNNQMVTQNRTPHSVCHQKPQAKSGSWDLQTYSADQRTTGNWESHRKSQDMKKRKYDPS
In kind it is functional, biochemical.

Experiment [7] has as its system Streptococcus sp. 'group A'. The experiment is described as follows: growth inhibition of control SK(-) GAS strain, dose response, counter-screen for streptokinase expression inhibitor project, luminescence, kanamycin, BacTiterGlo, confirmation (AID 1900). In kind it is functional, organism-based. Background: The purpose of a counterscreen is to sort out artefacts and off-target activity.

Experiment [8] in a line: cytotoxicity toward NIH3T3 fibroblasts, dose response, counter-screen, cell-based, ATP luminescence, mouse fibroblasts (AID 2010).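 Further: cells exposed to compound for about 90 hours before reading.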 Format: functional.
The target of the next experiment is T3, Streptokinase A (Streptococcus pyogenes serotype M1, UniProt P10520).
T3 sequence (P10520 whole entry): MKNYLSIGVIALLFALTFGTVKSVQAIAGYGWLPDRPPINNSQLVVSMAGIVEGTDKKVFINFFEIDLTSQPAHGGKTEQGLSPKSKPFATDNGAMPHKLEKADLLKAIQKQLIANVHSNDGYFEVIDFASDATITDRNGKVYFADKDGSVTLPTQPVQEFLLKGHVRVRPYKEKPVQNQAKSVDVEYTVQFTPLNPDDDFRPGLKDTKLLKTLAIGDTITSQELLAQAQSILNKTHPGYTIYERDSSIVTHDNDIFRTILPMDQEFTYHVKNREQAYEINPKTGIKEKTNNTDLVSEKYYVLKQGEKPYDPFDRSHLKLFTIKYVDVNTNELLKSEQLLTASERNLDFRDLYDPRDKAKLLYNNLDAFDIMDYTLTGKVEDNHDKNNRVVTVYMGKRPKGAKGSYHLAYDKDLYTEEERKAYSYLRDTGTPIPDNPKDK
The experiment is described as follows: S. pyogenes streptokinase expression inhibitors, potency, dose response, plasminogen activation absorbance, OD405 (AID 1914).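 Further: secreted streptokinase activity via plasminogen activation per viability signal from cell pellet.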 Format: functional, Streptococcus pyogenes M1 GAS.

A short description of experiment [9]: inhibitors of intracellular T. cruzi replication, confirmation, NIH3T3 host cells, beta-gal luminescence (AID 2044).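 Further: intracellular parasites grown in NIH/3T3 mouse fibroblasts as host cells; luminescent beta-galactosidase reporter signal from transgenic T. cruzi replicating inside host cells; inhibitors lower the luminescence signal.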 In kind it is functional, cell-based.
Experiment [10] is described as follows: AlphaScreen signal interference compounds, dose response, artefact control for ARNT-TACC3 interaction inhibitor project, biochemical, luminescence, cherry-pick (AID 651705).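 Further: AlphaScreen bead proximity signal that flags compounds interfering with the detection technology; potency reflects signal decrease which marks the compound as an assay artifact.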 In kind it is functional. (In general: Bead proximity is the source of the signal in Alpha formats.)
For another experiment, the system named is Streptococcus. Nature of the experiment: Group A Streptococcus viability loss, dose response, counter-screen for streptokinase expression inhibitor project, luminescence, BacTiterGlo (AID 1915).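 Further: potency for reduction of bacterial viability or growth.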 Format: functional, organism-based.
Experiment [11] has as its target T4, Mannose-6-phosphate isomerase (Homo sapiens, UniProt P34949).
T4 sequence (P34949 whole entry): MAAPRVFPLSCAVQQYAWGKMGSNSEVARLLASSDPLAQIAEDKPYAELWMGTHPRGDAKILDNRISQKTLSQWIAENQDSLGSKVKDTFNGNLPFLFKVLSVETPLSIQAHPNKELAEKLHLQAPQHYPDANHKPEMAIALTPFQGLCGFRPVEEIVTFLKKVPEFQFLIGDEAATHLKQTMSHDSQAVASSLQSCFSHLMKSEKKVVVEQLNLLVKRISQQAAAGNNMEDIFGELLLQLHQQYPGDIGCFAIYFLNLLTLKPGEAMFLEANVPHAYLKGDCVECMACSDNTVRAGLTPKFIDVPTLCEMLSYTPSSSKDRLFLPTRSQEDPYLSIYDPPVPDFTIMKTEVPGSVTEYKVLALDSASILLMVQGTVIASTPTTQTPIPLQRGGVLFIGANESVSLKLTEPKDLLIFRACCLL
The experiment is described as follows: human PMI inhibitors, high substrate, primary screen, biochemical, fluorescence intensity, high mannose 6-phosphate (AID 1220).

The source made the active and inactive calls.

What is called EC50 is the concentration that produces a half-maximal response. Broadly, the IC50 is the concentration that gives 50% inhibition. For `c1ccc(CCN2CN=C(Nc3nc4ccccc4o3)NC2)cc1`, the EC50 was 17.3 µM (active) in the experiment on H4, 14.3 µM (active) in [1], 8.35 µM (active) in [3] and > 29.9 µM (inactive) in the experiment “cells [4]”. The IC50 in the experiment “cells [2]” is > 29.9 µM (inactive).

What is called AC50 is the concentration giving half of the maximal activity seen. Consider `Cc1ccsc1-c1cc2nc(NCCCN(C)C)n(C)c(=O)c2s1`, for which the AC50 in experiment [5] was 47 µM (active); in [6], 9.79 µM (active).

Turning to `COc1ccc(-c2cnc3c(NC(C)=O)cc(-c4cccc(C(=O)NCCN(C)C)c4)cn23)cc1OC`, the AC50 is 15.2 µM (active) in experiment [5] and 2.33 µM (active) in [6].

For the molecule `CSCc1cc(N(C)c2ccccc2)nc(-c2ccccn2)n1`, the EC50 in experiment [7] is 6.57 µM (active); in experiment [8], > 60 µM (not active); on Streptokinase A, > 150 µM (not active); in experiment [9], 1.89 µM (active); in the experiment on Streptococcus, 25 µM (active). The AC50 in [10] is 108 µM (active).

In the case of `Cn1c(NCCN2CCCC2)nc2cc(-c3ccccc3)sc2c1=O`, the AC50 was 39.3 µM (active) in experiment [5] and 16.2 µM (active) in experiment [6].

Regarding `CCN(CC)CCCNC(=O)c1cc2c(O)nc3ccc(C)cc3c2s1`, the AC50 in [5] is 62.4 µM (active); in experiment [6] it was 21.5 µM (active).

`C/C(CC(=O)N1CCN(C=O)CC1)=N\NC(=O)c1cc2ccccc2cc1O`: the IC50 in experiment [11] was 42.5 µM (active).

With `COc1ccc(Nc2nc3nc(O)cc(O)c3s2)cc1`, the IC50 in [11] is listed as > 50 µM (not active).

Turning to `Oc1ncc(NCCc2ccccc2)c(O)n1`, the IC50 in “cells [2]” is > 29.9 µM (inactive). The EC50 in “cells [4]” is > 29.9 µM (inactive).
